Tests used:
[1] = test system: DOHH2 cell proliferation; assay: In vitro cell proliferation inhibitory activity test (CTG), DOHH2; assay type: cell-based; conditions: Homo sapiens, DOHH-2
Description: (§1) Test Example 4: In Vitro Cell Proliferation Inhibitory Activity Test
(§2) Cells were cultured in 1640 medium, added with 10% inactivated FBS and 1% double antibiotics, and cultured at 37° C. and 5% CO2.
(§3) (1) Cells were routinely cultured until the cell density was 80%-90%, and the cells were harvested when their number reached the requirement.
(§4) (2) Cells were resuspended with corresponding culture medium, counted, and prepared into cell suspension at appropriate density.
(§5) (3) The cell suspension was added to a 96-well plate, 100 μL per well.
(§6) (4) Cells were cultured overnight in a 37° C., 5% CO2 incubator.
(§7) (1) The compounds to be tested were diluted with DMSO to make a stock solution with a final concentration of 20 mM for later use.
(§8) (2) The stock solution was diluted 10 times from 20 mM to 2 mM with DMSO, and then diluted 3 times from 2 mM to 9 concentrations.
(§9) (3) The blank control wells were cells plus 0.5% DMSO, as high-reading control wells.
(§10) (4) Wells with no cells and only medium were used as low-reading control wells.
(§11) 4: Cell treatment with compound
(§12) (1) 24 h after the cells were plated, the compounds acted alone, and 99 μL of growth medium was added to each well, followed by 1 μL of the compound prepared in step 3. The plate was shaken gently to mix uniformly, and then placed in a 37° C., 5% CO2 incubator.
(§13) (2) The cell plate was placed in an incubator for 72 h.
(§14) 5: Detection by CTG method
(§15) (1) The cell plate to be tested was placed at room temperature for 30 min, and 100 μL of medium was discarded from each well.
(§16) (2) 100 μL of CTG reagent (CelltiterGlo kit) was added to each well, placed on a fast shaker for 2 min, and stood at room temperature in the dark for 30 min.
(§17) (3) The chemiluminescent signal value was read with the Envision instrument.
(§18) IC50 was calculated by using GraphPad Prism 8 software. The IC50 (half inhibitory concentration) of the compound was derived using the following nonlinear fitting formula, and the results are shown in the following table:
(§19) Y=Bottom+(Top−Bottom)/(1+10^((Log IC50−X)×HillSlope))
(§20) X: log value of compound concentration, Y: inhibition rate (% inhibition)
(§21) Inhibition rate (% inhibition)=(reading of high-reading control well-reading of compound well)/(reading of high-reading control well-reading of low-reading control well)×100

[2] = test system: TMD8 mouse subcutaneous xenograft tumor; assay: TMD8 pharmacodynamic model test; assay type: in vivo; conditions: same dose of 20 mg/kg, FIG. 2
Description: Test Example 7: TNMD8 Pharmacodynamic Model Test
Human diffuse large B-cell lymphoma TMD8 cells were monolayer-cultured in vitro in RPNHI1640 medium with […], 100 U/mL penicillin and 100 μg/mL streptomycin, in a 37° C., […] incubator. Routine digestion with trypsin-EDTA was performed twice a week for passaging. When the cell density was […] and the number reached the requirement, cells were harvested, counted and inoculated. 0.2 ml (1×10^7 cells) of TMVD8 cells (added with matrigel at a volume ratio of 1:1) were subcutaneously inoculated on the right back of each mouse. The mice were administered in groups when the average tumor volume reached about 137 mm^3. Tumor diameters were measured twice a week with vernier calipers. The tumor volume was calculated by the formula V=0.5 a×b^2, where a and b represent the long and short diameters of the tumor, respectively.

[3] = test system: NCI-N87 cell proliferation; assay: In vitro cell proliferation inhibitory activity test (CTG), NCI-N87; assay type: cell-based; conditions: Homo sapiens
Description: as §1, §2, §3, §4, §5, §6, §7, §8, §9, §10, §11, §12, §13, §14, §15, §16, §17, §18, §19, §20, §21

[4] = molecular target: HER2 kinase (Homo sapiens, UniProt P04626); assay: HER2 kinase activity test (HTRF); assay type: biochemical
Description: Test Example 5: HER2 Kinase Activity Test
1. Her2 Kinase test steps
2) 100 nl of the diluted compound working solution was transferred into each well of a reaction plate (784075, Greiner) by an Echo 550 liquid hander. The reaction plate was sealed with a sealing film and centrifuged at 1000 g for 1 min.
3) 1 ng/μL Her2 kinase solution was prepared with 1× kinase reaction buffer.
4) 5 μL of the kinase solution prepared above was added to each well of the reaction plate. The plate was sealed with a sealing film, centrifuged at 1000 g for 1 min, and placed at room temperature for 10 min.
5) A mixture of 2× kinase substrate and ATP was prepared by using 1× kinase reaction buffer, and the 2× Her2 kinase substrate was 2 μM TK-substrate-biotin and 4 μM ATP
6) 5 μL of the mixture of 2× TK-substrate-biotin and ATP was added to the reaction plate, centrifuged at 1000 g for 30 seconds to start the reaction.
7) Her2 kinase test was performed at room temperature for 50 min of reaction.
9) 10 μL of the mixture of Sa-XL 665 and TK-antibody-Cryptate was added to each well, centrifuged at 1000 g for 30 seconds, and reacted at room temperature for 1 h.
10) The fluorescence signals at 615 nm (Cryptate) and 665 nm (XL665) were read by Envision 2104.
1) The percentage inhibition was calculated as follows: […]
Ratiopositive control: average value of Ratio 665/615 nm of all positive control wells in the plate.
Rationegative control: average value of Ratio 665/615 nm of all negative control wells in the plate.
2) Calculation of IC50 and fitting of dose-effect curve of compound:
The IC50 of the compound was derived using the following nonlinear fitting formula with GraphPad 6.0.
Y=Bottom+(Top−Bottom)/(1+10^((Log IC50−X)×HillSlope)).
X: log value of compound concentration; Y: percentage inhibition of compound

Chain of HER2 kinase (P04626 23-1255): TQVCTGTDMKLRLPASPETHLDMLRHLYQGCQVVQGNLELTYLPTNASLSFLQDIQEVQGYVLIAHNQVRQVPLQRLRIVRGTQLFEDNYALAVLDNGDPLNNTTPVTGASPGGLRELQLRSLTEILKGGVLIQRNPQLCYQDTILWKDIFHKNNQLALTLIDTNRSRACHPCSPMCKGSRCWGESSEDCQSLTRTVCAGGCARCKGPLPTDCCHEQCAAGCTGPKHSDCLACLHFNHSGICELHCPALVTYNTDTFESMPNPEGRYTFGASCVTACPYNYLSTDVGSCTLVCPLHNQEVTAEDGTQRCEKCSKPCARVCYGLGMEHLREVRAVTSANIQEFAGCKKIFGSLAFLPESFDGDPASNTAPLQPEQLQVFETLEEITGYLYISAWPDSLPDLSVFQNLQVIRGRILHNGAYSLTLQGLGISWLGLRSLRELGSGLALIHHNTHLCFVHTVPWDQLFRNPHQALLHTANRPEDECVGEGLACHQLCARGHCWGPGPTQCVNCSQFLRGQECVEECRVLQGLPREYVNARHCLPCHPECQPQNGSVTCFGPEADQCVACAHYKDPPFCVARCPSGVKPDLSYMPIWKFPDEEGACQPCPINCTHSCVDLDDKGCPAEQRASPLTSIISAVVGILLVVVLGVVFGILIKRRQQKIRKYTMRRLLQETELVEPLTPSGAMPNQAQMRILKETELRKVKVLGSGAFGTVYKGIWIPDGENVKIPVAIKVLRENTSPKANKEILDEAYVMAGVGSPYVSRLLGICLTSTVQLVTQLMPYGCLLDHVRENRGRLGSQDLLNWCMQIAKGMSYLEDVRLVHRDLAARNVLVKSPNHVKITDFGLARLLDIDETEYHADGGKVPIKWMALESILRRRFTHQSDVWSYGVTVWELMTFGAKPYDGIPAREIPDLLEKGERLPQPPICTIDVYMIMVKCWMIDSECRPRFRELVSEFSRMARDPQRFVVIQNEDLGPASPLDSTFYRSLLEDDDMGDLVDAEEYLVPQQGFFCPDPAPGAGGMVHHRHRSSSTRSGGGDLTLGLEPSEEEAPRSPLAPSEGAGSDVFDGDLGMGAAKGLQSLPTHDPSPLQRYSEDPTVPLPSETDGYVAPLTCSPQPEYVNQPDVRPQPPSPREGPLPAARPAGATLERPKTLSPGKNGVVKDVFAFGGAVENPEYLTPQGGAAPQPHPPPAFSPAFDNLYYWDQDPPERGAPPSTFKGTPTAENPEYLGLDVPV

SMILES | IC50 [1] | inhibitory effect against the tumor compared with Tirabrutinib [2] | IC50 [3] | IC50 [4]
Nc1nccn2c(C3CCC(CO)OC3)nc(-c3ccc(C(F)(F)c4ccccc4)cc3)c12 (single isomer, unassigned) [Example 111-P1] | 116 nM | significantly better inhibitory effect against the tumor than Tirabrutinib | – | –
Nc1nccn2c(C34CCC(CO)(CC3)OC4)nc(-c3ccc(C(F)(F)c4ccccc4)cc3)c12 [Example 125] | 114 nM | significantly better inhibitory effect against the tumor than Tirabrutinib | – | –
Nc1nccn2c(C34CCC(CO)(CC3)OC4)nc(-c3ccc(C(F)(F)c4ccccc4F)cc3)c12 [Example 145] | – | – | 37.5 nM | 1.69 nM
Nc1nccn2c(C34CCC(CO)(CC3)OC4)nc(-c3ccc(C(F)(F)c4cccc(Cl)c4F)cc3)c12 [Example 152] | – | – | 43.4 nM | 4.19 nM
Nc1nccn2c(C34CCC(CO)(CC3)OC4)nc(-c3ccc(C(F)(F)c4ccccc4Cl)cc3)c12 [Example 155] | – | – | – | 9.44 nM
Cc1cc(Nc2ncnc3ccc(NC4=NC(C)(C)CO4)cc23)ccc1Oc1ccn2ncnc2c1 [Tucatinib, reference compound] | – | – | 26 nM | 3 nM

Source: patent US20230257383A1, “COMPOUND SERVING AS BTK INHIBITOR, PREPARATION METHOD THEREFOR, AND USE THEREOF” (CHENGDU HYPERWAY PHARMACEUTICALS CO., LTD., priority 2020, published 2023)
